Measurements reported in patent publication US20260200927A1, “NON PEPTIDERGIC AGONISTS OF OXYTOCIN RECEPTOR” (UNIVERSITE DE STRASBOURG, priority 2022, published 2026).

Assays:
oxytocin receptor = biological target: T1, oxytocin receptor (Homo sapiens, UniProt P30559); assay: IP-One IP1 accumulation assay in CHO cell lines expressing oxytocin receptor (agonism); type: cell-based; settings: CHO cells expressing oxytocin receptor, n = 3, read-out: OT-R EC50
T1 construct: expressed in transfected cells; host or cells: CHO cell lines
T1 sequence (P30559 1-389): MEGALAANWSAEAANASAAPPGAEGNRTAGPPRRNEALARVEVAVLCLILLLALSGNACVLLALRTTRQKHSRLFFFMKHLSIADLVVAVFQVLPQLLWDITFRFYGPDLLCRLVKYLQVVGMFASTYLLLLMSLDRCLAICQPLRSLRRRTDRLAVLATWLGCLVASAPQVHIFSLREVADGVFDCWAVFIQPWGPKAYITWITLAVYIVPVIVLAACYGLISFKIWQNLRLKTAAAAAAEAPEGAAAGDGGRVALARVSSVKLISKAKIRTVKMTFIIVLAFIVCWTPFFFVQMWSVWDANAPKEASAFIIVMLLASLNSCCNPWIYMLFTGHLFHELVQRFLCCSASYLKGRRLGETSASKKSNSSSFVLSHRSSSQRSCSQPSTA
Description: The activation constants (EC50 in nM) were measured in CHO cell lines expressing oxytocin receptor by IP-One IP1 accumulation assay. These values are the mean±SEM of at least three separate experiments performed in triplicate.

V1A-R = V1A-R (Homo sapiens, UniProt P37288); assay: V1A receptor antagonism measured as calcium signal; type: cell-based; settings: antagonist, n = 3, read-out: V1A-R (Antago) IC50
[1] = cited from earlier work

Chain of V1A-R (P37288 whole entry, species assumed): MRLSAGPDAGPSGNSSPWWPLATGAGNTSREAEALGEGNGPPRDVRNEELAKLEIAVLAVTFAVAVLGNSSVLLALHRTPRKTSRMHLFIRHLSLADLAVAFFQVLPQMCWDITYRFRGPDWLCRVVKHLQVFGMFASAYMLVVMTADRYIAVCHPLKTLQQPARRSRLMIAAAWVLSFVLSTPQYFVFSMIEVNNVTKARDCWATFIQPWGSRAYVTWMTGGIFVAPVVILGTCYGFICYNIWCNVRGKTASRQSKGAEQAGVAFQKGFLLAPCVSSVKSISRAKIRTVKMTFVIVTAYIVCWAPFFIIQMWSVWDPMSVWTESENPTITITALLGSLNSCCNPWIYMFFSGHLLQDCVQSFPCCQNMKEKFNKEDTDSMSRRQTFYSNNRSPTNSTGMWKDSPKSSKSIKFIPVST

Compound: Cc1cc(C(=O)N2Cc3cnn(C)c3Nc3ccccc32)ccc1CNC(=O)N1C[C@H](OCCCO)C[C@H]1C(=S)N(C)C [Compound 6, (2S,4R)-2-(dimethylcarbamothioyl)-4-(3-hydroxypropoxy)-N-[(2-methyl-4-4-methyl-2,4,5,9-tetraazatricyclo[8.4.0.0,3,7]tetradeca-1(14),3(7),5,10,12-pentaene-9-carbonylphenyl)methyl]pyrrolidine-1-carboxamide]
- EC50 (oxytocin receptor): 0.0298 µM

Compound: Cc1cc(C(=O)N2Cc3cnn(C)c3Nc3ccccc32)ccc1CNC(=O)N1C[C@H](F)C[C@H]1C(=S)N(C)C [Compound 1]
- IC50 (V1A-R): 0.25 µM

Compound: Cc1cc(C(=O)N2Cc3cnn(C)c3Nc3ccccc32)ccc1CNC(=O)N1C[C@H](OCc2nnn[nH]2)C[C@H]1C(=S)N(C)C [Compound 19, (2S,4R)-2-(dimethylcarbamothioyl)-N-[(2-methyl-4-4-methyl-2,4,5,9-tetraazatricyclo[8.4.0.0,3,7]tetradeca-1(14),3(7),5,10,12-pentaene-9-carbonylphenyl)methyl]-4-[(1H-1,2,3,4-tetrazol-5-yl)methoxy]pyrrolidine-1-carboxamide]
- EC50 (oxytocin receptor): 0.0174 µM

Compound: Cc1cc(C(=O)N2Cc3cnn(C)c3Nc3ccccc32)ccc1CNC(=O)N1C[C@H](OCc2cccc(S(N)(=O)=O)c2)C[C@H]1C(=S)N(C)C [Compound 13, (2S,4R)-2-(dimethylcarbamothioyl)-N-[(2-methyl-4-4-methyl-2,4,5,9-tetraazatricyclo[8.4.0.0,3,7]tetradeca-1(14),3(7),5,10,12-pentaene-9-carbonylphenyl)methyl]-4-[(3-sulfamoylphenyl)methoxy]pyrrolidine-1-carboxamide]
- EC50 (oxytocin receptor): 0.033 µM

Compound: Cc1cc(C(=O)N2Cc3cnn(C)c3Nc3ccccc32)ccc1CNC(=O)N1C[C@H](OCCCCO)C[C@H]1C(=S)N(C)C [Compound 7, (2S,4R)-2-(dimethylcarbamothioyl)-4-(4-hydroxybutoxy)-N-[(2-methyl-4-4-methyl-2,4,5,9-tetraazatricyclo[8.4.0.0,3,7]tetradeca-1(14),3(7),5,10,12-pentaene-9-carbonylphenyl)methyl]pyrrolidine-1-carboxamide]
- EC50 (oxytocin receptor): 0.0116 µM

Compound: Cc1cc(C(=O)N2Cc3cnn(C)c3Nc3ccccc32)ccc1CNC(=O)N1CC(OCCC2NC(=O)NC2=O)CC1C(=S)N(C)C [Compound 21, (2S,4R)-2-(dimethylcarbamothioyl)-4-[2-(2,5-dioxoimidazolidin-4-yl)ethoxy]-N-[(2-methyl-4-4-methyl-2,4,5,9-tetraazatricyclo[8.4.0.0,3,7]tetradeca-1(14),3(7),5,10,12-pentaene-9-carbonylphenyl)methyl]pyrrolidine-1-carboxamide]
- EC50 (oxytocin receptor): 0.0144 µM

Compound: CC[C@H](C)[C@@H]1NC(=O)[C@H](Cc2ccc(O)cc2)NC(=O)[C@@H](N)CSSC[C@@H](C(=O)N2CCC[C@H]2C(=O)N[C@@H](CC(C)C)C(=O)NCC(N)=O)NC(=O)[C@H](CC(N)=O)NC(=O)[C@H](CCC(N)=O)NC1=O [OT]
- half-life in blood [1]: about 3 minute

Compound: CO[C@@H]1C[C@@H](C(=S)N(C)C)N(C(=O)NCc2ccc(C(=O)N3Cc4cnn(C)c4Nc4ccccc43)cc2C)C1 [Compound 3]
- EC50 (oxytocin receptor): 0.033 µM
